Some targets named below: Adenosine receptor A2a (Homo sapiens, UniProt P29274); Melanocortin receptor 3 (Homo sapiens, UniProt P41968); Motilin receptor (Homo sapiens, UniProt O43193).
The target of a further experiment is T1, Adenosine receptor A1 (Homo sapiens, UniProt P30542).
T1 sequence (P30542 whole entry): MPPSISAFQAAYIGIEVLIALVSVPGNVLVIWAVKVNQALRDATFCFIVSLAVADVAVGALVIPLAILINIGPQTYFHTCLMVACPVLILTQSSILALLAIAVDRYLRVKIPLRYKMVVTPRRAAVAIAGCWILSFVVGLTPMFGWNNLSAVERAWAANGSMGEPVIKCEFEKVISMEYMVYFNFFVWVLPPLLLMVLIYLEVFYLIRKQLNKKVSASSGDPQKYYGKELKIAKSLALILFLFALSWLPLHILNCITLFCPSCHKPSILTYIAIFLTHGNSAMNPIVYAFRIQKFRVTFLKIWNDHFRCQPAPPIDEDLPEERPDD

In experiment [1] the target is T2, Type-1 angiotensin II receptor (Homo sapiens, UniProt P30556).
T2 sequence (P30556 whole entry): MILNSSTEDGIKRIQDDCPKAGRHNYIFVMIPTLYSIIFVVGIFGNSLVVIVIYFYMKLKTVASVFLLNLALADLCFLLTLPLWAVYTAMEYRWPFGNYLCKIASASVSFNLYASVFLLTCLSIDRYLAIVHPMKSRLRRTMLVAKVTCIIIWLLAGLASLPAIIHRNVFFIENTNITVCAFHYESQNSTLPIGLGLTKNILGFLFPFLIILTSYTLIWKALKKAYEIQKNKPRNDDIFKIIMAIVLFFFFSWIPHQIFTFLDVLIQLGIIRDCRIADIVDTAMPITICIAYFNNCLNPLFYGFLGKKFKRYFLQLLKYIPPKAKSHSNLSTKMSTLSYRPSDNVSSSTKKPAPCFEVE

Experiment [2] concerns the target T3, Cholecystokinin receptor type A (Homo sapiens, UniProt P32238).
T3 sequence (P32238 whole entry): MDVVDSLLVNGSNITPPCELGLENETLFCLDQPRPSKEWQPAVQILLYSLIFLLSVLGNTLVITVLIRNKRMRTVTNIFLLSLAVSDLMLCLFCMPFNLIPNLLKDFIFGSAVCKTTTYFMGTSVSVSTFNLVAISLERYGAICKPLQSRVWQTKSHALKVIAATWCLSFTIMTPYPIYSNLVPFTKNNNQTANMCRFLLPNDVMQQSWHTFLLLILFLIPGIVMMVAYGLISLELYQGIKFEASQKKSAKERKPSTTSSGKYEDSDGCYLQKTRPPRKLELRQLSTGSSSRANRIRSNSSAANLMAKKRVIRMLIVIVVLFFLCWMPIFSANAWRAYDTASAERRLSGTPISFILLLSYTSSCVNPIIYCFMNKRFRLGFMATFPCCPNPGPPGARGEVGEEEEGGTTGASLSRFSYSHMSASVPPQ

Experiment [3] concerns the target 3',5'-cyclic-AMP phosphodiesterase 4D (Homo sapiens, UniProt Q08499). The format is functional.
Experiment [4] has as its target T4, Equilibrative nucleoside transporter 1 (Homo sapiens, UniProt Q99808).
T4 sequence (Q99808 whole entry): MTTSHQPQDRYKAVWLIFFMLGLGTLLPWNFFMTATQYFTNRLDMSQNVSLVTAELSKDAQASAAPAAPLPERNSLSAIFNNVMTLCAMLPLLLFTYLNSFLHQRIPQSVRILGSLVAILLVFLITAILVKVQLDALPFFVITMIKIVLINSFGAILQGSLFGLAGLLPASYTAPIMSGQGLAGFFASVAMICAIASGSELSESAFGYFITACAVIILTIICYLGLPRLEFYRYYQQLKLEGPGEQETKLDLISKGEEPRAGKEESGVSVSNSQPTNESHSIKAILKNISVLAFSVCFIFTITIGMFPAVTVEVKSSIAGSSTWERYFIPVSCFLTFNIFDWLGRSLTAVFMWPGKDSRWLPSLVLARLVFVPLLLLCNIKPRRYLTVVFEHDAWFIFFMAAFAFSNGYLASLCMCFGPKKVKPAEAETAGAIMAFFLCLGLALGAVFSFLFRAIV

Experiment [5] concerns the target cGMP-inhibited 3',5'-cyclic phosphodiesterase 3A (Homo sapiens, UniProt Q14432). Format: functional.
Another experiment deals with T5, Adenosine receptor A3 (Homo sapiens, UniProt P0DMS8).
T5 sequence (P0DMS8 whole entry): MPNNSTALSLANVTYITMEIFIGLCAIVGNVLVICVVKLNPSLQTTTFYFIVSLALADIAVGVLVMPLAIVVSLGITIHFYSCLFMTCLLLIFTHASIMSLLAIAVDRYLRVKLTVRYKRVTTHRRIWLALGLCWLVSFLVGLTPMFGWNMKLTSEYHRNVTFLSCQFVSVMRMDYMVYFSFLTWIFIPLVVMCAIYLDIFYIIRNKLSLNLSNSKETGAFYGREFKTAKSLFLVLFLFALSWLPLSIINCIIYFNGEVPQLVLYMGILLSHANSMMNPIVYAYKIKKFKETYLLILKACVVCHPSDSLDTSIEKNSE

The target of experiment [6] is Neuronal acetylcholine receptor subunit alpha-4 (Homo sapiens, UniProt P43681).
Experiment [7] addresses Gamma-aminobutyric acid receptor subunit alpha-1 (Rattus norvegicus, UniProt P62813).

This is an account of results in ChEMBL document CHEMBL5291721, “A preclinical secondary pharmacology resource illuminates target-adverse drug reaction associations of marketed drugs” (Nat Commun, 2023).

The structures appear in SMILES notation.
Further: assay procedure not described here.

Chain of Gamma-aminobutyric acid receptor subunit alpha-1 (P62813 whole entry): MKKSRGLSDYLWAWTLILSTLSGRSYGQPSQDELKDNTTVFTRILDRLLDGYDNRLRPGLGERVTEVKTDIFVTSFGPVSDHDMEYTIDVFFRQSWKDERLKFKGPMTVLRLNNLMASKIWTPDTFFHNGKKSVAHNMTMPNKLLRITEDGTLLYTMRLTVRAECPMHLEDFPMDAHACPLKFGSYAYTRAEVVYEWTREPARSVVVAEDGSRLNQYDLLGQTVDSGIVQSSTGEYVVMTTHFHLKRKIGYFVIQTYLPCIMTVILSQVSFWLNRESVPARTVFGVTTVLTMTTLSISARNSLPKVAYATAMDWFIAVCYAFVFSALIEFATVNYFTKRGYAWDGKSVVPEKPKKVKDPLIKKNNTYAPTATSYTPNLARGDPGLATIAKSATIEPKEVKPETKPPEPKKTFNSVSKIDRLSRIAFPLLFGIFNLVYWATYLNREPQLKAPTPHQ
Chain of cGMP-inhibited 3',5'-cyclic phosphodiesterase 3A (Q14432 whole entry): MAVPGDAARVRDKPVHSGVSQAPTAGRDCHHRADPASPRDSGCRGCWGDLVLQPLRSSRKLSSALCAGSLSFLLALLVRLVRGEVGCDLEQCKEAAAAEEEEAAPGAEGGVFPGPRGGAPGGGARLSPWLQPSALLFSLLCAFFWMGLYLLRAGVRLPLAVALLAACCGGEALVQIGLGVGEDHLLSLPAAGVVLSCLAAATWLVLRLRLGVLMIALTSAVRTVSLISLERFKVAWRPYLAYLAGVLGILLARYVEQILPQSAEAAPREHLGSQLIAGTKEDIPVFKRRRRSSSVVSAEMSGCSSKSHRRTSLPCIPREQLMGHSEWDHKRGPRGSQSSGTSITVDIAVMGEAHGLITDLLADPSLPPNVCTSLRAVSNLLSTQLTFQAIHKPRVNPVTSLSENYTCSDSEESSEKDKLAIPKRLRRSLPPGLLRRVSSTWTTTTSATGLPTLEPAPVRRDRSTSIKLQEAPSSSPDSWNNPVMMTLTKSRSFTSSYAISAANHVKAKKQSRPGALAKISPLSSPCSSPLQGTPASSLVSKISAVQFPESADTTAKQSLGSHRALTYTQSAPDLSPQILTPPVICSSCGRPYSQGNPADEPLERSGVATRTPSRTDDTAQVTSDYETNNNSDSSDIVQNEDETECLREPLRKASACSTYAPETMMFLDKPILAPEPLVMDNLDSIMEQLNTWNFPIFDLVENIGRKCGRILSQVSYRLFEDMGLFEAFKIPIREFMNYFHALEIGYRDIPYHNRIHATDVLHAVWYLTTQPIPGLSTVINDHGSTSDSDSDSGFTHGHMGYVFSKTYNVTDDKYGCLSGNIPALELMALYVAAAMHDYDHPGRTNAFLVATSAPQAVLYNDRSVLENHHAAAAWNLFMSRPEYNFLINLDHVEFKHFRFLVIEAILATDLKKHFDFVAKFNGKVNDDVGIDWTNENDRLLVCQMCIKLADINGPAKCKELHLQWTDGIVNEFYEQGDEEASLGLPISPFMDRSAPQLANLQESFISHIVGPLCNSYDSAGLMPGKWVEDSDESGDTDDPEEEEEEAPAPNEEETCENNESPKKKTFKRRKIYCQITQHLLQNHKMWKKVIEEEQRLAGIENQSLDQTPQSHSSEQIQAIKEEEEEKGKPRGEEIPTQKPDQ
Chain of 3',5'-cyclic-AMP phosphodiesterase 4D (Q08499 whole entry): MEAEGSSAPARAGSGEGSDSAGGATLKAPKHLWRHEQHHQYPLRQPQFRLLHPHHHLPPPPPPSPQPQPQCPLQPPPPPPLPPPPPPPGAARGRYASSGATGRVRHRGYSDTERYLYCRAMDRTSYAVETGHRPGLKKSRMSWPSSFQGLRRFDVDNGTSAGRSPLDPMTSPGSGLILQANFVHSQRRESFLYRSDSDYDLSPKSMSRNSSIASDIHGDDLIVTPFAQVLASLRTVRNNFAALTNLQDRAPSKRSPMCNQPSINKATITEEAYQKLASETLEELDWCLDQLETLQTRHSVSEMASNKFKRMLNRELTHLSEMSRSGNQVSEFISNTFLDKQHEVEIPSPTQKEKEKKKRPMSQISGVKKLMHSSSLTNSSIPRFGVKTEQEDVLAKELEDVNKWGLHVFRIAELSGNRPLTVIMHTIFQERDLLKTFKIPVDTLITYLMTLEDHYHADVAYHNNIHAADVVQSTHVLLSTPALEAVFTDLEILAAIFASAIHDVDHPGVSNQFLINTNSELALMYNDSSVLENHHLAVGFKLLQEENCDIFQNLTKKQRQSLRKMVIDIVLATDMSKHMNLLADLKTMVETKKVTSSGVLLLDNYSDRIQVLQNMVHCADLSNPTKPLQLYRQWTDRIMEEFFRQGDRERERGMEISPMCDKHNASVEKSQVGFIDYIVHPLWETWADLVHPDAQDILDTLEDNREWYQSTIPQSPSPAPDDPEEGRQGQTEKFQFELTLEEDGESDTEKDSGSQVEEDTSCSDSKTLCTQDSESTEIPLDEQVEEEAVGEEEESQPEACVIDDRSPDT
Chain of Adenosine receptor A2a (P29274 whole entry): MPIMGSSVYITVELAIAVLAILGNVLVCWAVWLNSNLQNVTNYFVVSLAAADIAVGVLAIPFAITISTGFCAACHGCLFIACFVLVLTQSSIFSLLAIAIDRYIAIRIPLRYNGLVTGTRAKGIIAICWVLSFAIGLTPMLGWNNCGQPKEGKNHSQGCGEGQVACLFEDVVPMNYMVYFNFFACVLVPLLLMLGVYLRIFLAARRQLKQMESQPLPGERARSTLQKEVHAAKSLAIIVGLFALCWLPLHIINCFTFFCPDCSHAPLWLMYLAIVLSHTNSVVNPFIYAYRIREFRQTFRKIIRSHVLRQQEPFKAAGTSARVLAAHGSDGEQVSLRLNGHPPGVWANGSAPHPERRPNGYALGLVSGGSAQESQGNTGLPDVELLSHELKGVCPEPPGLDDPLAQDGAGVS
Chain of Neuronal acetylcholine receptor subunit alpha-4 (P43681 whole entry): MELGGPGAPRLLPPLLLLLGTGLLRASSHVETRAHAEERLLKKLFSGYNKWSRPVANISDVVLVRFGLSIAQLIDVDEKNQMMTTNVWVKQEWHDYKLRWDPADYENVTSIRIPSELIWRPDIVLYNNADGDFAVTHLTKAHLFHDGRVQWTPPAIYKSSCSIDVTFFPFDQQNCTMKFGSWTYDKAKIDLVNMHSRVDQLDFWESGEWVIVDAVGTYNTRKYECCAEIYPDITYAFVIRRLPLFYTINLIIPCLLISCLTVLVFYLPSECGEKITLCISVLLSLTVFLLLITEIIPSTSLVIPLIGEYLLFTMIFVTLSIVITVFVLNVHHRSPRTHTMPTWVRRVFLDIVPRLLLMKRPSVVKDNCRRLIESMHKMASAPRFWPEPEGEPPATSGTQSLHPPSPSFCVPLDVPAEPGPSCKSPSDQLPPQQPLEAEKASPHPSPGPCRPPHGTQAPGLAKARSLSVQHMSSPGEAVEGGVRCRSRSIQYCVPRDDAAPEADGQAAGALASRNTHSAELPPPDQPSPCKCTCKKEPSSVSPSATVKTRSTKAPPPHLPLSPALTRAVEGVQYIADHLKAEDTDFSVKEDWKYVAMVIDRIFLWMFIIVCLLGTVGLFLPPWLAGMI
Chain of Motilin receptor (O43193 whole entry): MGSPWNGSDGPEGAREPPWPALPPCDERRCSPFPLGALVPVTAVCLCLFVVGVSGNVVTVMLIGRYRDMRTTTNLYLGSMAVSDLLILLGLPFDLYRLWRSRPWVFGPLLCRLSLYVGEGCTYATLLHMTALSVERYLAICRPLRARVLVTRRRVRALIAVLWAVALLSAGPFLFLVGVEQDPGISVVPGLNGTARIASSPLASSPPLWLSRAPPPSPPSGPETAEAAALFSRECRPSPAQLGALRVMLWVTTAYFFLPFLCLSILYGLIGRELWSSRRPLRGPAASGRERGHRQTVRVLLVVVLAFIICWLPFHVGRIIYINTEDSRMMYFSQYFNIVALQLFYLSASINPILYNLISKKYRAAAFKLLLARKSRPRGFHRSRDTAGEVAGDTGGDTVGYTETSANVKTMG
Chain of Melanocortin receptor 3 (P41968 whole entry): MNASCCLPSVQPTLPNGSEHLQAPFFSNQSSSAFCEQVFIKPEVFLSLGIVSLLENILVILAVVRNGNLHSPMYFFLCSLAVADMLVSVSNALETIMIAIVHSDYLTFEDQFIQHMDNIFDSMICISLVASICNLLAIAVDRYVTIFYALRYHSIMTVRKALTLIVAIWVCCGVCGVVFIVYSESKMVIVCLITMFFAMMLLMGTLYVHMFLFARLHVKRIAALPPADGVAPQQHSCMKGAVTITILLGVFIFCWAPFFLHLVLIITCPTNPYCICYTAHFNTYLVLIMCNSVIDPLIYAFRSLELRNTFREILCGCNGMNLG

Turning to `CC(C)COCC(CN(Cc1ccccc1)c1ccccc1)N1CCCC1` (stereo unspecified) [BEPRIDIL], the half-maximal activity concentration (AC50) was above 30 µM at Adenosine receptor A1; above 30 µM at Adenosine receptor A2a; above 30 µM in experiment [1]; 23.2 µM in experiment [2]; 12.5 µM on Melanocortin receptor 3; 20.2 µM at Motilin receptor. Further, the AC50 in experiment [3], in experiment [4] and in experiment [5] was above 30 µM each time.

`C/N=C(\NC)NCc1ccccc1` [BETHANIDINE]: the AC50 (on Adenosine receptor A1; at Adenosine receptor A2a; on Adenosine receptor A3; in [1]; in experiment [2]; in experiment [6]) was above 30 µM throughout. The AC50 (at Melanocortin receptor 3; at Motilin receptor; in experiment [3]; in [4]; in [5]) was above 30 µM throughout.

As to `CCC(C)C1(CC)C(=O)NC(=O)NC1=O` (stereo unspecified) [BUTABARBITAL], the concentration at half-maximal activity (AC50) (on Adenosine receptor A1; at Adenosine receptor A2a; on Adenosine receptor A3; in experiment [1]; in experiment [2]; in [6]) was above 30 µM throughout. Moreover, the AC50 (at Melanocortin receptor 3; on Motilin receptor; in [3]; in experiment [4]; in [5]) was above 30 µM throughout.

In the case of `CNC1=Nc2ccc(Cl)cc2C(c2ccccc2)=[N+]([O-])C1` [CHLORDIAZEPOXIDE], the concentration at half-maximal activity (AC50) at Adenosine receptor A1 was above 30 µM; at Adenosine receptor A2a, above 30 µM; in experiment [1], above 30 µM; in experiment [2] it was above 30 µM; in experiment [6], above 10 µM; in experiment [7], above 10 µM. Besides, the half-maximal activity concentration (AC50) at Melanocortin receptor 3 was above 30 µM; at Motilin receptor, above 10 µM; in experiment [3], above 10 µM; in [4], above 30 µM; in [5], above 30 µM.

On to `CCOC(=O)c1cncn1[C@H](C)c1ccccc1` [ETOMIDATE], for which the concentration at half-maximal activity (AC50) (at Adenosine receptor A1; at Adenosine receptor A2a; at Adenosine receptor A3; in experiment [1]; in experiment [2]; in experiment [6]) was above 10 µM in each case. In addition, the AC50 is above 10 µM on Melanocortin receptor 3; above 10 µM at Motilin receptor; above 30 µM in [3]; above 10 µM in [4]; above 30 µM in [5].

As for `CN(C)CCCNc1c2ccccc2nc2cccc([N+](=O)[O-])c12` [NITRACRINE], the AC50 at Adenosine receptor A1 was above 30 µM; on Adenosine receptor A2a it was 17 µM; at Adenosine receptor A3, above 30 µM; in experiment [1], above 30 µM; in experiment [2], above 30 µM; in [6], above 30 µM. In addition, the half-maximal activity concentration (AC50) was above 30 µM in experiment [7]; above 30 µM on Melanocortin receptor 3; above 30 µM at Motilin receptor; 21 µM in experiment [3]; above 30 µM in [5].

Take `O=[N+]([O-])c1ccc(O)c2ncccc12` [NITROXOLINE]: the concentration at half-maximal activity (AC50) in experiment [7] is above 30 µM; in experiment [3], 3.2 µM; in experiment [5], above 30 µM.

As to `CC[C@@H]([C@H](C)O)n1ncn(-c2ccc(N3CCN(c4ccc(OC[C@@H]5CO[C@@](Cn6cncn6)(c6ccc(F)cc6F)C5)cc4)CC3)cc2)c1=O` [POSACONAZOLE], the AC50 (on Adenosine receptor A3; at Melanocortin receptor 3; in experiment [3]; in [5]) was above 30 µM each time.

In the case of `CNCc1ccc(-c2[nH]c3cc(F)cc4c3c2CCNC4=O)cc1` [RUCAPARIB], the AC50 (on Adenosine receptor A1; on Adenosine receptor A2a; in experiment [1]; in experiment [2]; in experiment [6]; on Melanocortin receptor 3) was above 30 µM throughout. The concentration at half-maximal activity (AC50) at Motilin receptor was above 30 µM; in experiment [3], 10 µM; in experiment [4], above 30 µM; in experiment [5], above 30 µM.

For the compound `CC1(C)S[C@@H]2[C@H](NC(=O)[C@H](N)c3ccccc3)C(=O)N2[C@H]1C(=O)OCOC(=O)[C@@H]1N2C(=O)C[C@H]2S(=O)(=O)C1(C)C` [SULTAMICILLIN], the half-maximal activity concentration (AC50) (on Adenosine receptor A1; on Adenosine receptor A2a; on Adenosine receptor A3; in [1]; in [2]; in experiment [6]) was above 30 µM in each case. The half-maximal activity concentration (AC50) (on Melanocortin receptor 3; on Motilin receptor; in experiment [3]; in experiment [4]; in experiment [5]) was above 30 µM in each case.

As for `Cc1cccc(N2CC(CO)OC2=O)c1` (stereo unspecified) [TOLOXATONE], the concentration at half-maximal activity (AC50) (on Adenosine receptor A1; at Adenosine receptor A2a; on Adenosine receptor A3; in experiment [1]; in experiment [2]; in experiment [6]) was above 30 µM each time. The concentration at half-maximal activity (AC50) (in experiment [7]; on Melanocortin receptor 3; at Motilin receptor; in experiment [3]; in experiment [5]) was above 30 µM in each case.

In the case of `Cc1cc2cc3c(C)cc(=O)oc3c(C)c2o1` [TRIOXSALEN], the half-maximal activity concentration (AC50) on Adenosine receptor A1 was above 30 µM; on Adenosine receptor A2a, 6.7 µM; at Adenosine receptor A3, above 30 µM; in experiment [1], above 10 µM; in experiment [2], above 10 µM; in [6], above 10 µM. Further, the AC50 was above 10 µM in [7]; above 10 µM on Melanocortin receptor 3; above 10 µM on Motilin receptor; above 10 µM in experiment [4]; above 30 µM in experiment [5].

Consider `CCC(C)C(CC)C(N)=O` (stereo unspecified) [VALNOCTAMIDE], for which the AC50 (on Adenosine receptor A1; on Adenosine receptor A2a; on Adenosine receptor A3; in experiment [1]; in experiment [2]; in [6]) was above 30 µM throughout. Also, the AC50 (in experiment [7]; at Melanocortin receptor 3; at Motilin receptor; in experiment [3]; in experiment [5]) was above 30 µM throughout.

Consider `Cc1cc(C(C)(C)C)cc(C)c1CC1=NCCN1` [XYLOMETAZOLINE], for which the AC50 (on Adenosine receptor A1; at Adenosine receptor A2a; on Adenosine receptor A3; in experiment [1]; in experiment [2]; in experiment [6]) was above 30 µM throughout. For the same compound, the concentration at half-maximal activity (AC50) (in [7]; at Melanocortin receptor 3; on Motilin receptor; in experiment [3]; in experiment [5]) was above 30 µM throughout.
